In brackets after ≈: the same amount, converted by molar mass. Where two headings read alike, the source gives them in different places. Where a SMILES comes first, the peptide text is derived from it.
What was measured:
[1] = test system: MDRAB 12036; format: cell-based, Acinetobacter baumannii
How it was run: (§1)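 Each strain is brought to 2×10^6 CFU in nutrient-sufficient Mueller-Hinton medium and dispensed into wells. Peptide solutions, stepwise diluted 2:1 in the same medium, are then added. The minimal concentration preventing growth gives the MIC.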

[2] = test system: E. coli; test: MIC of antibiotic during combined treatment with antimicrobial peptide; format: cell-based, Escherichia coli; settings: for Antibiotic MIC, Erythromycin / Antibiotic MIC, Linezolid / Antibiotic MIC, Vancomycin: E. coli
How it was run: (§2)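 MIC values for mixed peptide plus antibiotic solutions were measured in MH medium.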

[3] = test system: MDREC 1229; test: microbe, parasite or virus in culture; format: cell-based, Escherichia coli
How it was run: as §1

[4] = test system: E. coli; test: microbe, parasite or virus in culture; format: cell-based, Escherichia coli; settings: 16 h
How it was run: as §1

[5] = test system: MDRAB 12035; test: MIC of antimicrobial peptide during combined treatment with antibiotic; format: cell-based, Acinetobacter baumannii
How it was run: (§3)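 Antibiotic MIC came from antibiotic dilutions added to bacteria (2×10^6 CFU/ml, MH medium) already combined with peptide serially diluted 2:1 from its own MIC. Swapping the roles of the two agents gave the peptide MIC.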

[6] = test system: A. baumannii; test: as above; format: cell-based, Acinetobacter baumannii
How it was run: as §3

[7] = test system: A. baumannii; test: MIC of antibiotic during combined treatment with antimicrobial peptide; format: cell-based, Acinetobacter baumannii; settings: for Antibiotic MIC, Erythromycin / Antibiotic MIC, Linezolid / Antibiotic MIC, Vancomycin: A. baumannii
How it was run: as §2

[8] = test system: MDRST 8007; test: Minimal inhibitory concentration (MIC), single agent; format: cell-based, Salmonella typhimurium; settings: agent alone
How it was run: as §1

[9] = test system: S. aureus; test: microbe, parasite or virus in culture; format: cell-based, Staphylococcus aureus
How it was run: as §1

[10] = test system: B. subtilis; test: microbe, parasite or virus in culture; format: cell-based, Bacillus subtilis
How it was run: as §1

[11] = test system: MDREC 1229; test: MIC of antibiotic during combined treatment with antimicrobial peptide; format: cell-based, Escherichia coli
How it was run: as §3

[12] = test system: MDREC 1229; format: cell-based, Escherichia coli
How it was run: as §3

[13] = test system: E. coli; format: cell-based, Escherichia coli; settings: E. coli
How it was run: as §3

[14] = erythromycin 4 μg/ml (Conc./MIC 1/8)
[15] = erythromycin 8 μg/ml (Conc./MIC 1/4)
[16] = erythromycin 16 μg/ml (Conc./MIC 1/2)
[17] = erythromycin 32 μg/ml (Conc./MIC 1)
[18] = vancomycin 512 μg/ml (Conc./MIC 1/2)
[19] = vancomycin 1024 μg/ml (Conc./MIC 1)
[20] = combined with peptide at 1 μg/ml
[21] = combined with peptide at 2 μg/ml
[22] = combined with peptide at 4 μg/ml
[23] = combined with peptide at 6 μg/ml
[24] = combined with peptide at 8 μg/ml
[25] = combined with peptide at 16 μg/ml
[26] = combined with peptide at 32 μg/ml
[27] = combined with peptide at 64 μg/ml
[28] = peptide treatment concentration 1 μg/ml
[29] = peptide treatment concentration 2 μg/ml
[30] = peptide treatment concentration 4 μg/ml
[31] = peptide treatment concentration 6 μg/ml
[32] = peptide treatment concentration 8 μg/ml
[33] = peptide treatment concentration 16 μg/ml
[34] = peptide treatment concentration 32 μg/ml
[35] = peptide treatment concentration 64 μg/ml
[36] = with Erythromycin […] (Conc./MIC 1)

Compound: CC[C@H](C)[C@H](NC(=O)[C@H](CCCCN)NC(=O)[C@H](Cc1c[nH]c2ccccc12)NC(=O)[C@@H](N)CCCNC(=N)N)C(=O)N[C@@H](Cc1ccccc1)C(=O)N[C@@H](CCCCN)C(=O)N[C@@H](CCCCN)C(=O)N[C@H](C(=O)N1CCC[C@H]1C(=O)N[C@@H](CCCCN)C(=O)N[C@@H](Cc1ccccc1)C(=O)N[C@@H](CC(C)C)C(=O)N[C@@H](Cc1c[nH]cn1)C(=O)N[C@@H](CO)C(=O)N[C@@H](Cc1ccccc1)C(=O)N[C@@H](CCCCN)C(=O)N[C@@H](CCCCN)C(=O)N[C@@H](Cc1ccccc1)C(N)=O)[C@@H](C)CC [PapMA-5, RWK IFK KIP KFL HSF KKF-NH2] (H-RWKIFKKIPKFLHSFKKF-NH2; N-terminus assumed)
- Minimal inhibitory concentration MIC [1]: 64 µg/mL (≈ 26.9 µM)
- Synergistic effect of antibacterial activity with existing antibiotics compared with PapMA-1 ([2]; E. coli and MDREC1229): level similar to that of the PapMA-1 peptide
- Antibiotic MIC, Erythromycin ([2]; erythromycin combined with peptide at 1 μg/ml): 128 µg/mL
- Antibiotic MIC, Erythromycin ([2]; erythromycin combined with peptide at 2 μg/ml): 64 µg/mL
- Antibiotic MIC, Erythromycin ([2]; erythromycin combined with peptide at 4 μg/ml): 32 µg/mL
- Antibiotic MIC, Erythromycin ([2]; erythromycin combined with peptide at 6 μg/ml): 8 µg/mL
- Antibiotic MIC, Erythromycin ([2]; erythromycin combined with peptide at 8 μg/ml): 2 µg/mL
- Antibiotic MIC, Erythromycin ([2]; erythromycin combined with peptide at 16 μg/ml): 0.5 µg/mL
- Antibiotic MIC, Erythromycin ([2]; erythromycin combined with peptide at 32 μg/ml): 0.5 µg/mL
- Antibiotic MIC, Erythromycin ([2]; erythromycin combined with peptide at 64 μg/ml): 0 µg/mL
- Antibiotic MIC, Linezolid ([2]; linezolid combined with peptide at 1 μg/ml): >128 µg/mL
- Antibiotic MIC, Linezolid ([2]; linezolid combined with peptide at 2 μg/ml): 128 µg/mL
- Antibiotic MIC, Linezolid ([2]; linezolid combined with peptide at 4 μg/ml): 64 µg/mL
- Antibiotic MIC, Linezolid ([2]; linezolid combined with peptide at 6 μg/ml): 32 µg/mL
- Antibiotic MIC, Linezolid ([2]; linezolid combined with peptide at 8 μg/ml): 16 µg/mL
- Antibiotic MIC, Linezolid ([2]; linezolid combined with peptide at 16 μg/ml): 8 µg/mL
- Antibiotic MIC, Linezolid ([2]; linezolid combined with peptide at 32 μg/ml): 2 µg/mL
- Antibiotic MIC, Linezolid ([2]; linezolid combined with peptide at 64 μg/ml): 0 µg/mL
- Antibiotic MIC, Vancomycin ([2]; vancomycin combined with peptide at 1 μg/ml): >128 µg/mL
- Antibiotic MIC, Vancomycin ([2]; vancomycin combined with peptide at 2 μg/ml): >128 µg/mL
- Antibiotic MIC, Vancomycin ([2]; vancomycin combined with peptide at 4 μg/ml): 128 µg/mL
- Antibiotic MIC, Vancomycin ([2]; vancomycin combined with peptide at 6 μg/ml): 64 µg/mL
- Antibiotic MIC, Vancomycin ([2]; vancomycin combined with peptide at 8 μg/ml): 32 µg/mL
- Antibiotic MIC, Vancomycin ([2]; vancomycin combined with peptide at 16 μg/ml): 8 µg/mL
- Antibiotic MIC, Vancomycin ([2]; vancomycin combined with peptide at 32 μg/ml): 2 µg/mL
- Antibiotic MIC, Vancomycin ([2]; vancomycin combined with peptide at 64 μg/ml): 0 µg/mL
- Minimal inhibitory concentration MIC [3]: 64 µg/mL (≈ 26.9 µM)
- Minimal inhibitory concentration MIC [4]: 64 µg/mL (≈ 26.9 µM)
- Peptide MIC during treatment with erythromycin [5, 14]: 4 µg/mL
- Peptide MIC during treatment with erythromycin [5, 15]: 4 µg/mL
- Peptide MIC during treatment with erythromycin [5, 16]: 4 µg/mL
- Peptide MIC during treatment with erythromycin [5, 17]: 0 µg/mL
- Peptide MIC during treatment with linezolid ([5]; linezolid 64 μg/ml (Conc./MIC 1/8)): 4 µg/mL
- Peptide MIC during treatment with linezolid ([5]; linezolid 512 μg/ml (Conc./MIC 1)): 0 µg/mL
- Peptide MIC during treatment with linezolid ([5]; linezolid […] (Conc./MIC 1/2)): 1 µg/mL
- Peptide MIC during treatment with linezolid ([5]; linezolid […] (Conc./MIC 1/4)): 4 µg/mL
- Peptide MIC during treatment with vancomycin [5, 18]: 2 µg/mL
- Peptide MIC during treatment with vancomycin [5, 19]: 1 µg/mL
- Peptide MIC during treatment with vancomycin ([5]; vancomycin […] (Conc./MIC 1/4)): 4 µg/mL
- Peptide MIC during treatment with vancomycin ([5]; vancomycin […] (Conc./MIC 1/8)): 4 µg/mL
- Peptide MIC during treatment with antibiotic [6, 14]: 8 µg/mL
- Peptide MIC during treatment with antibiotic [6, 15]: 4 µg/mL
- Peptide MIC during treatment with antibiotic [6, 16]: 2 µg/mL
- Peptide MIC during treatment with antibiotic [6, 17]: 0 µg/mL
- Peptide MIC during treatment with antibiotic ([6]; linezolid 32 μg/ml (Conc./MIC 1/8)): 4 µg/mL
- Peptide MIC during treatment with antibiotic ([6]; linezolid 64 μg/ml (Conc./MIC 1/4)): 2 µg/mL
- Peptide MIC during treatment with antibiotic ([6]; linezolid […] (Conc./MIC 1)): 0 µg/mL
- Peptide MIC during treatment with antibiotic ([6]; linezolid […] (Conc./MIC 1/2)): 1 µg/mL
- Peptide MIC during treatment with antibiotic [6, 18]: 0.5 µg/mL
- Peptide MIC during treatment with antibiotic [6, 19]: 0 µg/mL
- Peptide MIC during treatment with antibiotic ([6]; vancomycin […] (Conc./MIC 1/4)): 1 µg/mL
- Peptide MIC during treatment with antibiotic ([6]; vancomycin […] (Conc./MIC 1/8)): 4 µg/mL
- Synergistic effect of antibacterial activity with existing antibiotics compared with PapMA-1 ([7]; A. baumannii and MDRAB 12035): level similar to that of PapMA-1 peptide
- Antibiotic MIC, Erythromycin [7, 20]: 32 µg/mL
- Antibiotic MIC, Linezolid [7, 20]: 128 µg/mL
- Antibiotic MIC, Vancomycin [7, 20]: >128 µg/mL
- Antibiotic MIC, Erythromycin [7, 21]: 16 µg/mL
- Antibiotic MIC, Linezolid [7, 21]: 64 µg/mL
- Antibiotic MIC, Vancomycin [7, 21]: >128 µg/mL
- Antibiotic MIC, Erythromycin [7, 22]: 8 µg/mL
- Antibiotic MIC, Linezolid [7, 22]: 16 µg/mL
- Antibiotic MIC, Vancomycin [7, 22]: 32 µg/mL
- Antibiotic MIC, Erythromycin [7, 23]: 4 µg/mL
- Antibiotic MIC, Linezolid [7, 23]: 8 µg/mL
- Antibiotic MIC, Vancomycin [7, 23]: 16 µg/mL
- Antibiotic MIC, Erythromycin [7, 24]: 0.5 µg/mL
- Antibiotic MIC, Linezolid [7, 24]: 4 µg/mL
- Antibiotic MIC, Vancomycin [7, 24]: 8 µg/mL
- Antibiotic MIC, Erythromycin [7, 25]: 0.25 µg/mL
- Antibiotic MIC, Linezolid [7, 25]: 4 µg/mL
- Antibiotic MIC, Vancomycin [7, 25]: 4 µg/mL
- Antibiotic MIC, Erythromycin [7, 26]: 0.125 µg/mL
- Antibiotic MIC, Linezolid [7, 26]: 2 µg/mL
- Antibiotic MIC, Vancomycin [7, 26]: 2 µg/mL
- Antibiotic MIC, Erythromycin [7, 27]: 0 µg/mL
- Antibiotic MIC, Linezolid [7, 27]: 0 µg/mL
- Antibiotic MIC, Vancomycin [7, 27]: 0 µg/mL
- Minimal inhibitory concentration MIC [8]: 64 µg/mL (≈ 26.9 µM)
- Minimal inhibitory concentration MIC [9]: >128 µg/mL
- Minimal inhibitory concentration MIC [10]: >128 µg/mL
- Antibiotic MIC, Erythromycin [11, 28]: 128 µg/mL
- Antibiotic MIC, Linezolid [11, 28]: 128 µg/mL
- Antibiotic MIC, Vancomycin [11, 28]: >128 µg/mL
- Antibiotic MIC, Erythromycin [11, 29]: 64 µg/mL
- Antibiotic MIC, Linezolid [11, 29]: 128 µg/mL
- Antibiotic MIC, Vancomycin [11, 29]: >128 µg/mL
- Antibiotic MIC, Erythromycin [11, 30]: 16 µg/mL
- Antibiotic MIC, Linezolid [11, 30]: 64 µg/mL
- Antibiotic MIC, Vancomycin [11, 30]: >128 µg/mL
- Antibiotic MIC, Erythromycin [11, 31]: 8 µg/mL
- Antibiotic MIC, Linezolid [11, 31]: 32 µg/mL
- Antibiotic MIC, Vancomycin [11, 31]: >128 µg/mL
- Antibiotic MIC, Erythromycin [11, 32]: 4 µg/mL
- Antibiotic MIC, Linezolid [11, 32]: 32 µg/mL
- Antibiotic MIC, Vancomycin [11, 32]: 64 µg/mL
- Antibiotic MIC, Erythromycin [11, 33]: 1 µg/mL
- Antibiotic MIC, Linezolid [11, 33]: 16 µg/mL
- Antibiotic MIC, Vancomycin [11, 33]: 16 µg/mL
- Antibiotic MIC, Erythromycin [11, 34]: 0.25 µg/mL
- Antibiotic MIC, Linezolid [11, 34]: 4 µg/mL
- Antibiotic MIC, Vancomycin [11, 34]: 8 µg/mL
- Antibiotic MIC, Erythromycin [11, 35]: 0 µg/mL
- Antibiotic MIC, Linezolid [11, 35]: 0 µg/mL
- Antibiotic MIC, Vancomycin [11, 35]: 0 µg/mL
- Peptide MIC [12, 36]: 0 µg/mL
- Peptide MIC ([12]; with Linezolid 512 μg/ml (Conc./MIC 1)): 0 µg/mL
- Peptide MIC [13, 36]: 0 µg/mL
- Peptide MIC ([13]; with Linezolid […] (Conc./MIC 1)): 0 µg/mL
- Peptide MIC ([13]; with Vancomycin 1024 μg/ml (Conc./MIC 1)): 0 µg/mL
